ChEMBL document CHEMBL1201862, “PubChem BioAssay data set” (2004)
Active and inactive are the calls of the source.

Columns and labels:
Paired box protein Pax-8 = Paired box protein Pax-8 (Homo sapiens, UniProt Q06710); test: inhibitors of PAX8-driven TPO luciferase reporter, dose response, RMG-I cells, cherry-pick (AID 687027); assay type: functional, cell-based;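 also: luciferase reporter driven by Pax8 target thyroperoxidase promoter measured by SteadyGlo luminescence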
[1] = NIH:OVCAR-3 ovarian cancer cell cytotoxicity, dose response, PAX8 inhibitor project, plate reader, dry powder samples (AID 743044); assay type: functional, cell-based
[2] = IGROV1 ovarian cancer cell cytotoxicity, dose response, PAX8 inhibitor project, plate reader, dry powder samples (AID 743043); assay type: functional, cell-based; conditions: IGROV-1
[3] = cytotoxicity in OVCAR4 cells, dose response, cytotoxicity control for PAX8 inhibitor project, cell-based, plate reader, dry powder, SA11 (AID 743150); assay type: functional; conditions: OVCAR-4
[4] = cytotoxicity in OV-90 ovarian cancer cells, dose response, PAX8 inhibitor project, cell-based, plate reader, dry powder, SA8 (AID 743149); assay type: functional
[5] = cytotoxicity dependent on PAX8, dose response, cell-based, plate reader, dry powder (AID 743049); assay type: functional
Albumin = Albumin (Bos taurus, UniProt P02769); test: Counterscreen for inhibitors of T-cell receptor (TCR)-CD3 interaction: Fluorescence-based biochemical high throughput dose response assay to identify inhibitors of T-cell receptor (TCR)-CD3 interaction using a TAMRA-labeled BSA probe.; assay type: functional
Albumin, sequence (P02769 whole entry): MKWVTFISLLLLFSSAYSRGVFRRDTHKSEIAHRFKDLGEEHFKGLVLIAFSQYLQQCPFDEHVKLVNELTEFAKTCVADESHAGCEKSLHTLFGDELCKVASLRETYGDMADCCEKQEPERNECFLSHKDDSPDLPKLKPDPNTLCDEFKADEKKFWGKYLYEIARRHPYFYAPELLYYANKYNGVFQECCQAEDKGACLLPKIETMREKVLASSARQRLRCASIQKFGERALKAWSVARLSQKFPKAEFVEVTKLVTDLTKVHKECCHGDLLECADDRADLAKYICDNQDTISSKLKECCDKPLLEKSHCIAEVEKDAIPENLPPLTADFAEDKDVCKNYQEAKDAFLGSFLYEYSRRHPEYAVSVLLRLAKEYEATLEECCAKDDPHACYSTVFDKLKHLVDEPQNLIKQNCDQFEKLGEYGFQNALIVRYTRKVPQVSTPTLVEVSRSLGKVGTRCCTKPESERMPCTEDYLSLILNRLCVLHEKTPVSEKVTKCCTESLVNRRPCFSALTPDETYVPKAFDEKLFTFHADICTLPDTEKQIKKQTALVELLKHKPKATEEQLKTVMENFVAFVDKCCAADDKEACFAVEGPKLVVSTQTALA

[6] = molecular target: NAD-dependent protein deacylase sirtuin-5, mitochondrial (Homo sapiens, UniProt Q9NXA8); test: SIRT5 desuccinylase inhibitors, dose response, biochemical, fluorescence imaging, cherry-pick, set 5 (AID 720591);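 also: desuccinylation of succinyl peptide AMC substrate read as fluorescence after trypsin release; potency of inhibitors that lower fluorescence and may act on trypsin instead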
NAD-dependent protein deacylase sirtuin-5, mitochondrial, sequence (Q9NXA8 whole entry): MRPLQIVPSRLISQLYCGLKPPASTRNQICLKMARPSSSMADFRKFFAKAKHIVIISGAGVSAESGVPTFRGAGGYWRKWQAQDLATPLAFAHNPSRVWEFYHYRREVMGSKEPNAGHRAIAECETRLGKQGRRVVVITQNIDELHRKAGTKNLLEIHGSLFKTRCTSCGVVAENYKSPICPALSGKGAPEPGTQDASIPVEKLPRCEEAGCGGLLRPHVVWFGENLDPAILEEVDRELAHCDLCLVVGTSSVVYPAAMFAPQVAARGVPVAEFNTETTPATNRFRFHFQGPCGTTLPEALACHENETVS

[7] = molecular target: Luciferin 4-monooxygenase (Photinus pyralis, UniProt P08659); test: firefly luciferase enzyme inhibitors, dose response, biochemical, luminescence (AID 1891)
Luciferin 4-monooxygenase, sequence (P08659 whole entry): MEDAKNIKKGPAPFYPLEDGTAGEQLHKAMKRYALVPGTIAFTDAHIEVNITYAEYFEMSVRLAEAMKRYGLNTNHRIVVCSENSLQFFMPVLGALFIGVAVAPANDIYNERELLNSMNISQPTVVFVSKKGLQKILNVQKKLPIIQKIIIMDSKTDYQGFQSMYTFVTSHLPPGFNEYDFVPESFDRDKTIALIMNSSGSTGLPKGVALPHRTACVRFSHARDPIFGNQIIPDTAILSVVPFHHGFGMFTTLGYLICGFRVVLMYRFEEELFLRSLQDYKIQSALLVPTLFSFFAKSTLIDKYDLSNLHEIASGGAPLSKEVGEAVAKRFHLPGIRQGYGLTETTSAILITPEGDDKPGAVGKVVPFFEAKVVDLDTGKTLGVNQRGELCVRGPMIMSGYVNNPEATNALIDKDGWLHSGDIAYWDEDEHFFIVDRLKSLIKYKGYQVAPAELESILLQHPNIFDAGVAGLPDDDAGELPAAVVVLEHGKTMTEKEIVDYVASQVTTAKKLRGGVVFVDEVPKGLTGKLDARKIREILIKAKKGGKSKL

[8] = Luminescence Cell-Based Dose Confirmation HTS to Identify Inhibitors of Platelet Dense Granule Release. [Related pubchem assays: 1663 (Primary HTS), 1678 (Summary of Project)]; assay type: functional
[9] = molecular target: Dual specificity tyrosine-phosphorylation-regulated kinase 1A (Rattus norvegicus, UniProt Q63470); assay type: biochemical, Homo sapiens
[10] = test system: Streptococcus sp. 'group A'; test: growth inhibition of control SK(-) GAS strain, dose response, counter-screen for streptokinase expression inhibitor project, luminescence, kanamycin, BacTiterGlo, confirmation (AID 1900); assay type: functional, organism-based
Streptokinase A = molecular target: T1, Streptokinase A (Streptococcus pyogenes serotype M1, UniProt P10520); test: S. pyogenes streptokinase expression inhibitors, potency, dose response, plasminogen activation absorbance, OD405 (AID 1914); assay type: functional, Streptococcus pyogenes M1 GAS;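 also: secreted streptokinase activity via plasminogen activation per viability signal from cell pellet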
T1 sequence (P10520 whole entry): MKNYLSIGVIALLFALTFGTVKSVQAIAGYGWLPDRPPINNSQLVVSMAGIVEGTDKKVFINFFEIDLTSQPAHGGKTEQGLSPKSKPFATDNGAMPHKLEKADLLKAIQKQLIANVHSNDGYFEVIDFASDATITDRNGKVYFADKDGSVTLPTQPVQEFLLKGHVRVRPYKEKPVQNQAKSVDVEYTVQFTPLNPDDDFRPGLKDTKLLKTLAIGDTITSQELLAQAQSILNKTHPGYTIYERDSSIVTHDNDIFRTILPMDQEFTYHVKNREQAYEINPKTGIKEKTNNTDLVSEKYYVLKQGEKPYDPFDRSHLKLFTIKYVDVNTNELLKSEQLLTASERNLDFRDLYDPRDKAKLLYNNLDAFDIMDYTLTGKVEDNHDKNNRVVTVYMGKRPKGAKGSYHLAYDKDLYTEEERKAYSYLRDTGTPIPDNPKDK

[11] = microbe, parasite or virus in culture; assay type: functional; conditions: Mycobacterium tuberculosis
Streptococcus = test: Group A Streptococcus viability loss, dose response, counter-screen for streptokinase expression inhibitor project, luminescence, BacTiterGlo (AID 1915); assay type: functional, organism-based;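 also: potency for reduction of bacterial viability or growth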
Vero = test: cells; assay type: functional; conditions: Chlorocebus sabaeus
[12] = inhibitors of firefly luciferase expression or activity, dose response, H4 neuroglioma cells, luminescence (AID 1990); assay type: functional, cell-based
[13] = Luminescence Cell-Based Dose Response HTS to Identify Inhibitors of 5'UTR Stem-Loop Driven Prion Protein mRNA Translation in H4 Neuroglioblastoma Cells. [Related pubchem assays: 1827 (Project Summary), 1813 (Primary HTS)]; assay type: functional
[14] = inhibitors of SNCA 5'UTR-driven reporter translation, confirmation, H4 neuroglioma cells, luminescence (AID 1988); assay type: functional, cell-based
Protein Tat = molecular target: T2, Protein Tat (Human immunodeficiency virus type 1 group M subtype B (isolate HXB2)(HIV-1), UniProt P04608); assay type: functional;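 also: tat binding to TAR RNA read out by fluorescence polarization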
T2 sequence (P04608 whole entry): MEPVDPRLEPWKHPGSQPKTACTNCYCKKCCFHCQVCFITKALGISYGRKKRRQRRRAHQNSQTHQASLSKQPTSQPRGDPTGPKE

[15] = molecular target: FAD-linked sulfhydryl oxidase ALR (Homo sapiens, UniProt P55789); test: inhibitors of human ALR sulfhydryl oxidase, dose response, biochemical, H2O2 detection, luminescence, cherry-pick (AID 493248)
FAD-linked sulfhydryl oxidase ALR, sequence (P55789 whole entry, the tested form may be a part): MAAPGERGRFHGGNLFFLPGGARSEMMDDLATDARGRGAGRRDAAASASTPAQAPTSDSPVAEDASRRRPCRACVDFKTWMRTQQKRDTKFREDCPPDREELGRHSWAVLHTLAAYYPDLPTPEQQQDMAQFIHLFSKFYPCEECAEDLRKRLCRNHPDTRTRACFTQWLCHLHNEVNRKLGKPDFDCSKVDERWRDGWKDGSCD

Fatty acid synthase = Fatty acid synthase (Homo sapiens, UniProt P49327); test: FAS thioesterase domain inhibitors, dose response, biochemical, kinetic fluorescence intensity (AID 624326); assay type: functional;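 also: rate of fluorescence rise from hydrolysis of a fluorogenic O-methyl fluorescein ester substrate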
Fatty acid synthase, sequence (P49327 whole entry, the tested form may be a part): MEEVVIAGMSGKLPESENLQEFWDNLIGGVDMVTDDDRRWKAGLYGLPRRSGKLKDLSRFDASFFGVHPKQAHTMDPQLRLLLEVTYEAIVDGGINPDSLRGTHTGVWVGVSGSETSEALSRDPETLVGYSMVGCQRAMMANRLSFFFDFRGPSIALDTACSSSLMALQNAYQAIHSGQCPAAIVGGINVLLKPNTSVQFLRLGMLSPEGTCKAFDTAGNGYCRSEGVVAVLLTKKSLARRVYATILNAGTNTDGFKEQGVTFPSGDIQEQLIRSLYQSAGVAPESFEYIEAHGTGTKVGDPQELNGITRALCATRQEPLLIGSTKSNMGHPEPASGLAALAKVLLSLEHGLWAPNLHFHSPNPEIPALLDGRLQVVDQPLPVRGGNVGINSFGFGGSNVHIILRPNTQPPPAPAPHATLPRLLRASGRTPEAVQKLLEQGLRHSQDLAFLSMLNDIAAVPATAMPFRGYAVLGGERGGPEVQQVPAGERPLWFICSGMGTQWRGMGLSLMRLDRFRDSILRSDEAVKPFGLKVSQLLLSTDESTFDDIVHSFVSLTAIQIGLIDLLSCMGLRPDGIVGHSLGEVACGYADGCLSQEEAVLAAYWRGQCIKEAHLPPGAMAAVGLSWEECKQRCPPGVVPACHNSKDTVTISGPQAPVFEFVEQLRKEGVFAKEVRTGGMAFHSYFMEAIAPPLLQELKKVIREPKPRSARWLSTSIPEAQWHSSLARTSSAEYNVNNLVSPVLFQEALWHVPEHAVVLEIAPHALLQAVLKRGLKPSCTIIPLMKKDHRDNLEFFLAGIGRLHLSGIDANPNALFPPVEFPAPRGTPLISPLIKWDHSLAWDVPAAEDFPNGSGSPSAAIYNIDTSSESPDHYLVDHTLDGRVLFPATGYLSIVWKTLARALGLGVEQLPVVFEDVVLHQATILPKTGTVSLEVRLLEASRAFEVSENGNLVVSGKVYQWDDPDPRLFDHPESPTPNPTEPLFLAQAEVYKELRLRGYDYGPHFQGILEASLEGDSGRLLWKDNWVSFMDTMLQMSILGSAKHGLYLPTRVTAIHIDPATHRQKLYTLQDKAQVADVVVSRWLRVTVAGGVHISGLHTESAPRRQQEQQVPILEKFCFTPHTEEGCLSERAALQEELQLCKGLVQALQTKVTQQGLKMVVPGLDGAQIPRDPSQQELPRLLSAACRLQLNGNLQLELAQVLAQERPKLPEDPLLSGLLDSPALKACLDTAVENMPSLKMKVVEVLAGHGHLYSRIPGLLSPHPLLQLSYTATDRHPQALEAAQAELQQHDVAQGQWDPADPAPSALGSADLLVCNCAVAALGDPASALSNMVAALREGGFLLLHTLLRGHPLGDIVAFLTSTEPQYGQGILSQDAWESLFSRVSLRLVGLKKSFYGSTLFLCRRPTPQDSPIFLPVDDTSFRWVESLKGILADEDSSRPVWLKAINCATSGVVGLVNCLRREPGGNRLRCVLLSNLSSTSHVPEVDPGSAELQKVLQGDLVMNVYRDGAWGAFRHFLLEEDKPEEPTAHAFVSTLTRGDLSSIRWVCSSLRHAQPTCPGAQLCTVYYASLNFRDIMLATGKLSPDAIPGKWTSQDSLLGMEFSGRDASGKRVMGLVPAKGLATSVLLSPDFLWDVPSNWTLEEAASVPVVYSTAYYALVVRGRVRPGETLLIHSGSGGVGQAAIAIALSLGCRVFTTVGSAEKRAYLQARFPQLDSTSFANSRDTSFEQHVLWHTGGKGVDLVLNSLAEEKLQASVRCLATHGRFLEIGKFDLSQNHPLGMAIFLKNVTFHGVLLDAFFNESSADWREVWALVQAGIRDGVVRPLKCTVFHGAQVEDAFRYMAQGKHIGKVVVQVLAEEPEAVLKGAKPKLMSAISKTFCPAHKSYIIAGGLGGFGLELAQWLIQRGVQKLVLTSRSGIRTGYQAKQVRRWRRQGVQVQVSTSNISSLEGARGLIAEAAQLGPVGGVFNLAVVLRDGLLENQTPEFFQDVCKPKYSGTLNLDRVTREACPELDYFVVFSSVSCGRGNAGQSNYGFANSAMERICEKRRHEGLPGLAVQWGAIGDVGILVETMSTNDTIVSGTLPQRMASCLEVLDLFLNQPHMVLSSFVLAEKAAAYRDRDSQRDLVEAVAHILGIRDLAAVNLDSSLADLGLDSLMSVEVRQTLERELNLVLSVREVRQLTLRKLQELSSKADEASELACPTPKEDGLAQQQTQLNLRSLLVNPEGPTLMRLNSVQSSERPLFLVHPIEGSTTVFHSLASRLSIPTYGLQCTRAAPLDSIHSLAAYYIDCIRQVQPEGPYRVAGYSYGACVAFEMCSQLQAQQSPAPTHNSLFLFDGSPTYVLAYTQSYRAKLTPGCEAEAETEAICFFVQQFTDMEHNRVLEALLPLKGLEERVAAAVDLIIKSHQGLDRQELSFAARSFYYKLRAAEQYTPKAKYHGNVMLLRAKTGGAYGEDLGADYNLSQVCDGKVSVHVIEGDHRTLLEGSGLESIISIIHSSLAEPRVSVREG

Paired box protein Pax-8, sequence (Q06710 whole entry): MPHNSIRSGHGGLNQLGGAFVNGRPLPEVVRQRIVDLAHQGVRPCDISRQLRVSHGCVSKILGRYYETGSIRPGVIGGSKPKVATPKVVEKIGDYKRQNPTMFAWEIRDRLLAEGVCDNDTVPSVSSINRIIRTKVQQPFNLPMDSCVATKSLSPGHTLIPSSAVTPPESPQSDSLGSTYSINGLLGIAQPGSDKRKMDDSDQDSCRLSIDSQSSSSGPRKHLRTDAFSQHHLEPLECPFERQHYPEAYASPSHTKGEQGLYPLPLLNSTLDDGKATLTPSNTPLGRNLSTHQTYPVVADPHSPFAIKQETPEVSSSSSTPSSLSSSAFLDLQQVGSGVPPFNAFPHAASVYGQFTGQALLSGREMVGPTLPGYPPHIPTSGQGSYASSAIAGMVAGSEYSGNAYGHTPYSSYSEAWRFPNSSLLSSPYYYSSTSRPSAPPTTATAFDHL

O=C(CCS(=O)(=O)c1ccccc1)Nc1nc2ccc(F)cc2s1
AC50 (Paired box protein Pax-8): 3.55 µM (active) | AC50 [1]: 28 µM (active) | AC50 [2]: 36.9 µM (active) | AC50 [3]: > 100 µM (inactive) | AC50 [4]: > 100 µM (inactive) | AC50 [5]: 20.3 µM (active)

O=C(CCl)NNC(=O)c1c(O)c2ccccc2[nH]c1=O
IC50 (Albumin): > 94 µM (inactive)

Cc1ccc(Cn2c(N3CCNCC3)nc3c2c(=O)[nH]c(=O)n3C)cc1
AC50 [6]: 25.2 µM (active)

O=C(c1ccccc1)c1ccc2cc(O)ccc2c1
EC50 [7]: 0.752 µM (active) | EC50 [8]: 7.74 µM (active) | AC50 [9]: 9.25 µM (active)

COc1cccc(NC(=O)Nc2nc(SC(C)(C)C)ns2)c1
EC50 [10]: 9.49 µM (active) | EC50 (Streptokinase A): 9.69 µM (active) | CC50 [11]: 7.82 µM (active) | EC50 (Streptococcus): > 50 µM (not active) | CC50 (Vero): 7.41 µM (active)

CC(C)C[C@H](NC(=O)c1[nH]cnc1C(=O)N1CCN(c2ccccc2)CC1)C(=O)OC(C)(C)C
EC50 [12]: 14.5 µM (active) | EC50 [13]: 65.1 µM (active) | EC50 [14]: 26.5 µM (active) | IC50 (Protein Tat): > 100 µM (active)

O=C1N(c2ccccc2C(F)(F)F)O[C@@]1(c1ccccc1)C1CCCCC1
CC50 (Vero): > 25 µM (active)

O=S(=O)(c1ccc(-c2csc(-c3cccnc3)n2)cc1)N1CCCC1
AC50 [15]: 0.268 µM (active) | IC50 (Fatty acid synthase): 1.62 µM (active)

Cc1noc(C)c1COc1ccc(C(=O)NNC(=O)c2ccccc2O)cc1
IC50 (Albumin): > 94.1 µM (inactive)
